Legend:
[1] = microbe, parasite or virus in culture; conditions: Mycobacterium tuberculosis, 72 h, read-out: pIC50 (converted)
[2] = microbe, parasite or virus in culture; conditions: Mycobacterium tuberculosis, 96 h, read-out: pIC50 (converted)

SMILES | IC50 [1] [µM] | IC50 [2] [µM]
CN(C)S(=O)(=O)c1cccc(CN2CCCC2)c1 | > 501 | > 501
Cc1nc(N2CCCC2)nc2c1CCN(Cc1ccsc1)CC2 | 0.893 | 1.59
COc1ncccc1CNS(=O)(=O)c1cccc(Cl)c1 | 230 | 311
CCn1nnc2c1C(COCC(=O)N(C)C)CN(Cc1ccoc1)C2 (stereo unspecified) | > 50.1 | > 50.1
CCCc1cc(C(=O)NCC2COCCO2)cs1 (stereo unspecified) | > 501 | 124
CN(C)C(=O)CCN1CCCC1c1ccsc1 (stereo unspecified) | 196 | > 501
Nc1cnn(Cc2ccccn2)c1 | 206 | > 501
Cc1ccc(S(=O)(=O)N2CCOc3ccncc32)cc1 | 99.3 | 457
Cc1cccc(CC(=O)N2CCn3cnnc3C2)c1 | 170 | 187
COc1ccnc(N2CCCN(c3nc(C4CC4)ns3)CC2)n1 | > 50.1 | > 50.1
FC(F)(F)c1ccc2nc([C@H]3CCN(C4CCCCC4)C3)[nH]c2c1 | 27.5 | 24.9
COCCC(=O)N1CCC(Nc2ncccc2Br)CC1 | > 501 | 288
COc1cccc(-c2ncc(CN3CC[C@H]4CC[C@@H](C3)N4)s2)c1 | 41.2 | 24.5
COc1ccccc1-c1ncc(CN2C[C@@H](N(C)C)[C@H](C(C)C)C2)s1 | 31.4 | 25.4
COCC(C)(CCO)NCC(=O)Nc1ccccc1I (stereo unspecified) | 238 | > 501
CC(Sc1nnc[nH]1)C(=O)Nc1ccc(C#N)cc1 (stereo unspecified) | > 501 | > 501
CC(C)NS(=O)(=O)c1cc(CN)ccc1F | > 501 | > 501
CCc1ccc(OCn2cc(N)cn2)cc1 | 292 | 134
CC(C)c1cc(C(=O)N2CC[C@@H](N)C2)nn1C(C)(C)C | > 501 | > 501
Cc1cn(Cc2nc(CC(C)C)nn2-c2ccccn2)c(=O)[nH]c1=O | > 50.1 | > 50.1
O=C(CC1CC1)N[C@@H]1CN(Cc2ccoc2)C[C@@H]2CCCO[C@@H]21 | > 50.1 | > 50.1
CNCC(O)CN1CCc2ccccc2CC1 (stereo unspecified) | 254 | 289
CC(=O)c1ccc(Cl)c(S(=O)(=O)NC(CN)C2CC2)c1 (stereo unspecified) | 116 | 111
O=C1N(Cc2cccnc2)CCC12CCCN(c1ncccn1)C2 (stereo unspecified) | > 50.1 | > 50.1
c1ccc(-c2cc(CN3C[C@@H]4CC[C@H](C3)N(CC3CC3)C4)on2)cc1 | 24.3 | 24.8
O=C(NCCN1CCCC1)c1ccc2ccccc2n1 | 146 | 249

SMILES | IC50 [1] [µM] | IC50 [2] [µM]
CCCC(C)N(C)Cc1nnc(-c2ccco2)o1 (stereo unspecified) | 5.32 | 29.5
CCn1nnc(NCc2ccc(-c3ccc(Br)cc3)o2)n1 | 44.3 | 14.1
NC(=O)CN1CCC(OCCCc2ccccc2)C1 (stereo unspecified) | 246 | 369
N#Cc1nc(-c2ccccc2)oc1NCCCO | 243 | > 501
CN(Cc1cnccn1)S(=O)(=O)c1ccc(C(F)(F)F)nc1 | > 50.1 | > 50.1
Cn1cc(CC(=O)Nc2ccc(I)cn2)cn1 | 283 | > 501
CC(C)CCNC(=O)CCn1cc(Br)ccc1=O | 142 | 105
NCc1cc(N[C@H](CO)CC2CCCCC2)ncn1 | 296 | > 501
CCN(CC)CCS(=O)(=O)c1ccccc1 | 300 | > 501
O=C(c1cc(C2CC2)on1)N1CCCN(C2CC2)CC1 | > 501 | > 501
Clc1ccc2c(c1)CNCCO2 | 33.4 | 67.8
CC(=O)NCC(=O)N1CCc2nc(-c3ccccc3)nc(C)c2CC1 | > 50.1 | > 50.1
CN(Cc1ccc(N)nc1)c1ccc(C#N)cn1 | > 501 | > 501
CCCC(C)NC(=O)c1coc(C)n1 (stereo unspecified) | > 501 | > 501
CCc1nnc(NC(=O)N(CCOC)Cc2ccc(C)o2)s1 | > 50.1 | > 50.1
CC1(C)Oc2ccc(NC(=O)C3CCOC3)cc2O1 (stereo unspecified) | 289 | 261
CCc1cn[nH]c1C1CCN(c2cc(C)c3cccc(OC)c3n2)CC1 | 22.2 | > 50.1
COc1cccc(CNc2ccccc2CO)n1 | > 501 | > 501
CC1(C)CCC(C(=O)N2CCCO2)c2ccccc21 (stereo unspecified) | > 50.1 | > 50.1
O=C(c1ccc(NCc2cccc(F)c2)cc1)N1CCCC1 | > 50.1 | > 50.1
COc1cccc(F)c1C(C)NC(=O)c1nccn1C (stereo unspecified) | 322 | 252
Cc1cc(C2CCC2)nc(N2CCNC(=O)C2)n1 | 119 | 44.3
CS(=O)(=O)CCC(=O)N1C[C@@H]2CC[C@H](C1)N(Cc1ccccc1)C2=O | > 50.1 | > 50.1
COc1ccc(-c2cccc(-c3ccn(CCN(C)C)n3)c2)nn1 | 19.9 | 16.3
Cc1ccccc1OCC1CCCN(c2cc(N)nc(N)n2)C1 (stereo unspecified) | 35.7 | 30.1
CN1CCC(NC(=O)c2coc(Br)c2)CC1=O (stereo unspecified) | > 501 | > 501

SMILES | IC50 [1] [µM] | IC50 [2] [µM]
CC(C)c1cccc(S(=O)(=O)NCCCN)c1 | 195 | > 501
NC(=O)c1ccccc1NC(=O)CSc1ccccn1 | 116 | > 501
CCC(C)(C)NC(=O)c1nnn(-c2ccccc2)c1C | 311 | 282
COC(=O)CCCC(=O)N1CCCc2ccccc2C1 | 180 | > 501
Cc1ccc2[nH]c(CN)nc2c1C | 246 | > 501
COc1ccnc(CN2CCCC(CCc3ccc(F)cc3)C2)c1OC (stereo unspecified) | 34.7 | 20.9
Cc1ccoc1C(=O)N1CCC(n2cc(-c3ccsc3)nn2)CC1 | > 50.1 | > 50.1
COc1ccc(OC)c(CNc2nc(C)nn2C)c1 | 199 | > 501
NCCCOc1ncc(C(F)(F)F)cc1Cl | 101 | 238
NCCCN1CCN(c2ccccc2F)CC1 | > 501 | > 501
O=C(CO)N1CCCC(CCc2ccccc2F)C1 (stereo unspecified) | 196 | 142
OCCNCCNCc1ccc(-c2ccccc2Cl)o1 | 136 | 34.4
O=C(O)[C@@H]1CN(Cc2ccc(-c3cc[nH]n3)s2)C[C@H]1C1CC1 | > 50.1 | > 50.1
O=C(NC1CC1)c1nc2c(s1)CCCN2c1ccccc1 | > 50.1 | 14.2
COC(=O)N1CCC(Nc2nnc(C(F)(F)F)s2)CC1 | 160 | 230
NC(CN1CCOCC1)c1ccccc1 (stereo unspecified) | > 501 | > 501
CCc1nnc2n1CCN(C(=O)CN(CC)CC)C2 | > 50.1 | > 50.1
CCOCCNC(=O)Nc1ccc(OCc2noc(C3CC3)n2)cc1 | > 50.1 | > 50.1
C=C(C)COCCNC(=O)c1c(O)cccc1F | > 501 | > 501
NCc1ccc(OC2CCCCC2)nc1 | > 501 | > 501
COc1cccc(C(=O)NCc2ccoc2C)n1 | 364 | > 501
O=C(NCc1ccnc(N2CCCC2)c1)c1ccsc1 | 114 | 141
CN(C1CCCC1)S(=O)(=O)NCCNc1ccccn1 | 94.1 | 189
COCCN(Cc1ccoc1)S(=O)(=O)c1ccc(F)c(Cl)c1 | > 50.1 | > 50.1
COc1ccc2c(c1)CCN2C(=O)C(C)(C)C#N | 156 | 293
CC(=O)c1ccc(S(C)(=O)=O)c(N2CCC(C)(C)C2)c1 | > 501 | > 501

SMILES | IC50 [1] [µM] | IC50 [2] [µM]
CC(C)Cn1ccnc1CNc1ncccc1F | 307 | 382
O=C(CN1CCN(c2ccccc2)CC1)N1CCCC1 | > 501 | > 501
CCC(=O)c1ccc(CN)cc1 | > 501 | 264
CCOC(=O)Nc1ccc2c(c1)OCCO2 | > 501 | 325
COC(=O)CCCC(=O)N1CCC2(CCCC2)C1 | 180 | 110
CCS(=O)(=O)NCCSc1nc2cc(F)c(F)cc2[nH]1 | 468 | 448
COC(=O)COc1ccc(-c2noc(C3CCCO3)n2)cc1 (stereo unspecified) | 31.9 | 18.6
CC(C)CC1CCN(C(=O)CCn2cnnn2)C1 (stereo unspecified) | 28.3 | 77.2
COc1ccc([C@H]2C[C@H](N)C2)cc1F | 95 | 60.7
Cc1ccc2nc(CCN)oc2c1 | 78.4 | 23.3
O=C(NCC1CC1)c1cccc2nn[nH]c12 | 233 | 256
CN1CCC(CNC(=O)c2cccc(C(F)(F)F)c2)c2ccccc21 (stereo unspecified) | 45.5 | > 50.1
Cc1cc(N2CCC2c2ccccc2)n2ncnc2n1 (stereo unspecified) | 162 | 245
COC(=O)CCCC(=O)N1CCCc2ccc(F)cc21 | 213 | 277
NC1(c2nc(-c3ccccc3)c[nH]2)CCCC1 | 176 | 258
CC(C)CNC(=O)c1cc2c(s1)CCN2Cc1cccnc1 | > 50.1 | > 50.1
CCN(CC1CCOC1)C(=O)c1cc(I)c[nH]1 (stereo unspecified) | 212 | > 501
COc1cc(C(=O)NCCCc2ccccc2)on1 | > 50.1 | > 50.1
O=C(CNc1cccc(CO)c1)NCc1ccc(Cl)s1 | 134 | > 501
O=C(NCCO)c1ccc(OCc2cccs2)cc1 | 378 | > 501
NC(=O)c1cnc(NC2CCc3ccccc32)c(Cl)c1 (stereo unspecified) | 199 | 196
CC(=O)N1CCCC(c2cnc(-c3c(C)nn(C)c3C)cn2)C1 (stereo unspecified) | > 50.1 | > 50.1
CC(=O)Nc1ccc(N2C(=O)C=CC2=O)cc1 | 181 | > 501
O=C1CCN(Cc2cc(Br)cc3cccnc23)CCN1 | 493 | > 501
O=C(Nc1cccnc1)[C@H]1COC[C@H]2CN(C3CCCC3)C[C@H]21 | > 50.1 | > 50.1
